Experiment [1] concerns the target Vascular endothelial growth factor receptor 2 (Homo sapiens, UniProt P35968).
Description: Inhibition of KDR by HTRF assay
The test system of experiment [2] is HUVEC. In words: cells. Conditions: Homo sapiens.
Description: Inhibition of bFGF-induced proliferation of HUVEC cells
Experiment [3] has as its system HUVEC. Nature of the experiment: cells. The conditions noted are these: Homo sapiens. The source holds these as a separate data set.
Description: Inhibition of VEGF-induced proliferation of HUVEC cells

Structures are written as SMILES.

Chain of Vascular endothelial growth factor receptor 2 (P35968 whole entry): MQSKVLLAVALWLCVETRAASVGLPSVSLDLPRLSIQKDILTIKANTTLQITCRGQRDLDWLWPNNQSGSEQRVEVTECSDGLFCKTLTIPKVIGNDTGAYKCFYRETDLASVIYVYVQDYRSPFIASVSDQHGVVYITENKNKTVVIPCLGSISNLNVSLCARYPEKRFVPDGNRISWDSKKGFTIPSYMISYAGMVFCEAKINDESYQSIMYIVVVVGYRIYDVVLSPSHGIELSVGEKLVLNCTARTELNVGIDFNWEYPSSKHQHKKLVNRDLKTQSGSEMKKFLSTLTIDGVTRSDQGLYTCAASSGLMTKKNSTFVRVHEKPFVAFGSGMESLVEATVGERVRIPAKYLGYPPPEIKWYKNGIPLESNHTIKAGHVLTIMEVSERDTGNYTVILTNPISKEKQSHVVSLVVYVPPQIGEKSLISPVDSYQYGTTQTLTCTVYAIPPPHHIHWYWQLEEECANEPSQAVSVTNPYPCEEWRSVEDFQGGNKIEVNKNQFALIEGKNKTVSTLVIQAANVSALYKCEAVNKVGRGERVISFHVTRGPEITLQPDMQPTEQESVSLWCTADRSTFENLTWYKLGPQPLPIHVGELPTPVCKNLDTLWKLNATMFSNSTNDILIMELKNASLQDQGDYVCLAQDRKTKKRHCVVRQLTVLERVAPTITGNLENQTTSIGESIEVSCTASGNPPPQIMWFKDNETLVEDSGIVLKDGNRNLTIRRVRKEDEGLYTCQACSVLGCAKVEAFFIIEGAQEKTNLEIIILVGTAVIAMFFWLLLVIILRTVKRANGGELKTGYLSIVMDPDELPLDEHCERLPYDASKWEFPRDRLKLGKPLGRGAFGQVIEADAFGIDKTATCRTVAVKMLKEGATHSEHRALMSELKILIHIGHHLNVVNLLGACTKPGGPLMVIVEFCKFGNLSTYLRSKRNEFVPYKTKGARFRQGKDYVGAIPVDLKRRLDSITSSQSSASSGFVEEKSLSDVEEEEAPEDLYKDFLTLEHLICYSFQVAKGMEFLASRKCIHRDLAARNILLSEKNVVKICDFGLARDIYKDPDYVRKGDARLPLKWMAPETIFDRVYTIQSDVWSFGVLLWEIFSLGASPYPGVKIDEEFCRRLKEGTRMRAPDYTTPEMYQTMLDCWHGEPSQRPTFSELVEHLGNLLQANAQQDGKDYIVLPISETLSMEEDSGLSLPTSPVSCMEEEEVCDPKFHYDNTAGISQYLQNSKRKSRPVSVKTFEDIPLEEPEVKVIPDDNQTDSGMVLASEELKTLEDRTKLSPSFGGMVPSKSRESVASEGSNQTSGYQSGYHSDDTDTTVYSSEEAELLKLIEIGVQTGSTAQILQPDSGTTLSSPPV

Turning to `COc1cc2nccc(Oc3ccc4c(C(=O)Nc5ccc(Cl)c(C(F)(F)F)c5)cccc4c3)c2cc1OC`, the IC50 in experiment [1] was 1 nM; in experiment [2], 228 nM; in experiment [3], 247 nM.

`O=C(Nc1ccc(Cl)cc1)c1cccc2cc(Oc3ccncn3)ccc12`: the IC50 in experiment [1] turned out to be 310 nM.

Regarding `CNc1nccc(Oc2ccc3c(C(=O)Nc4ccc(Cl)cc4)cccc3c2)n1`, the IC50 was 46 nM in experiment [1], over 1100 nM in experiment [2] and 296 nM in experiment [3].

Consider `COc1cc2nccc(Oc3cc4cccc(C(=O)Nc5ccc(Cl)cc5)c4cn3)c2cc1OC`, for which the figures for the IC50 in experiment [1], in experiment [2] and in experiment [3] were 23 nM, over 1140 nM and 175 nM, respectively.

Regarding `CCCNC(=O)c1cccc2cc(Oc3ccnc4cc(OC)c(OC)cc34)ccc12`, the IC50 in experiment [1] is 1.3 nM; in experiment [2] it was over 1140 nM; in experiment [3], 7 nM.

For the compound `COc1cc2nccc(Oc3ccc4c(C(=O)NC5(C)CC5)cccc4c3)c2cc1OC`, in experiment [1], the IC50 was 15 nM.

`COc1cc2nccc(Oc3ccc4c(C(=O)NC5CC5)cccc4c3)c2cc1OC` displayed an IC50 in experiment [3] of 1 nM. This counts as single-digit nanomolar.

Regarding `COc1cc2nccc(Oc3ccc4c(C(=O)Nc5ccc(Cl)cc5Cl)cccc4c3)c2cc1OC`, the results for the IC50 in experiment [1], in experiment [2] and in experiment [3] were 2 nM, over 1140 nM and 14 nM, respectively.

As for `COc1cc2nccc(Oc3ccc4c(C(=O)Nc5cccc(Cl)c5)cccc4c3)c2cc1OC`, the figures for the IC50 in experiment [1] and in experiment [3] were 0.3 nM and 5.1 nM, respectively.

With `COc1cc2nccc(Oc3ccc4c(C(=O)Nc5cc(C(C)(C)C)on5)cccc4c3)c2cc1OC`, the IC50 in experiment [1] is 0.8 nM; in experiment [2], 190 nM; in experiment [3], 68 nM.

`COc1cc2nccc(Oc3ccc4c(C(=O)Nc5cc(Cl)cc(Cl)c5)cccc4c3)c2cc1OC`: the IC50 in experiment [1] came to 0.3 nM; in experiment [2], 742 nM; in experiment [3], 28 nM.

Consider `COc1cc2nccc(Oc3ccc4c(C(=O)NC5CCC5)cccc4c3)c2cc1OC`, for which the IC50 in experiment [1] was 3 nM; in experiment [2] it was over 1140 nM; in experiment [3] it was 7 nM.

For `COc1cc2nccc(N(C)c3ccc4c(C(=O)Nc5ccc(Cl)cc5)cccc4c3)c2cc1OC`, the IC50 in experiment [1] is over 1400 nM.

`COc1cc2nccc(Oc3ccc4c(C(=O)Nc5ccccc5F)cccc4c3)c2cc1OC`: the IC50 in experiment [1] is 2 nM; in experiment [2] it was over 1140 nM; in experiment [3], 7 nM.

In the case of `CNc1cc(Oc2ccc3c(C(=O)Nc4ccc(Cl)cc4)cccc3c2)ccn1`, the values for the IC50 in experiment [1], in experiment [2] and in experiment [3] were 7 nM, over 1100 nM and 140 nM, respectively.

Regarding `O=C(Nc1ccc(Cl)cc1)c1cccc2cc(Oc3ccnc4ccccc34)ccc12`, the IC50 in experiment [1] was 4 nM; in experiment [2], over 1100 nM; in experiment [3], 34 nM.

As to `COc1cc2nccc(Nc3ccc4c(C(=O)Nc5ccc(Cl)cc5)cccc4c3)c2cc1OC`, the half-maximal inhibitory concentration (IC50) in experiment [1] was 8 nM; in experiment [2] it was 115 nM; in experiment [3] it was 14 nM.

With `COc1cc2nccc(Oc3ccc4c(C(=O)NC5CCCC5)cccc4c3)c2cc1OC`, the IC50 in experiment [1] is 9 nM; in experiment [2] it was over 1140 nM; in experiment [3], 7 nM.

`COc1cc2nccc(Oc3ccc4c(C(=O)Nc5ccon5)cccc4c3)c2cc1OC` returned an IC50 in experiment [1] of 0.2 nM.

`COc1cc2ncc(F)c(Oc3ccc4c(C(=O)Nc5ccc(Cl)cc5)cccc4c3)c2cc1OC`: the IC50 in experiment [1] was 20 nM; in experiment [2] it was over 1100 nM; in experiment [3] it was 69 nM.

Turning to `COc1cc2nccc(Oc3ccc4c(C(=O)Nc5ccc(Cl)cc5)ccnc4c3)c2cc1OC`, the figures for the IC50 in experiment [1], in experiment [2] and in experiment [3] were 22 nM, 88 nM and 10 nM, respectively.

As to `COc1cc2nccc(Oc3ccc4c(C(=O)Nc5cccc(F)c5)cccc4c3)c2cc1OC`, the IC50 in experiment [1] was determined as 0.6 nM; in experiment [3], 3 nM.

On to `COc1cc2nccc(Oc3ccc4c(C(=O)Nc5nccs5)cccc4c3)c2cc1OC`, for which the results for the IC50 in experiment [2] and in experiment [3] were 605 nM and 2 nM, respectively.

The values are drawn from ChEMBL document CHEMBL1144685, “Naphthamides as novel and potent vascular endothelial growth factor receptor tyrosine kinase inhibitors: design, synthesis, and evaluation” (J Med Chem, 2008).
